This note sets out measurements from publication PMC8462848, “Quinazolin-4(3H)-one based potential multiple tyrosine kinase inhibitors with excellent cytotoxicity” (Journal of Enzyme Inhibition and Medicinal Chemistry, 2021).

T2 sequence (P35968 20-1356): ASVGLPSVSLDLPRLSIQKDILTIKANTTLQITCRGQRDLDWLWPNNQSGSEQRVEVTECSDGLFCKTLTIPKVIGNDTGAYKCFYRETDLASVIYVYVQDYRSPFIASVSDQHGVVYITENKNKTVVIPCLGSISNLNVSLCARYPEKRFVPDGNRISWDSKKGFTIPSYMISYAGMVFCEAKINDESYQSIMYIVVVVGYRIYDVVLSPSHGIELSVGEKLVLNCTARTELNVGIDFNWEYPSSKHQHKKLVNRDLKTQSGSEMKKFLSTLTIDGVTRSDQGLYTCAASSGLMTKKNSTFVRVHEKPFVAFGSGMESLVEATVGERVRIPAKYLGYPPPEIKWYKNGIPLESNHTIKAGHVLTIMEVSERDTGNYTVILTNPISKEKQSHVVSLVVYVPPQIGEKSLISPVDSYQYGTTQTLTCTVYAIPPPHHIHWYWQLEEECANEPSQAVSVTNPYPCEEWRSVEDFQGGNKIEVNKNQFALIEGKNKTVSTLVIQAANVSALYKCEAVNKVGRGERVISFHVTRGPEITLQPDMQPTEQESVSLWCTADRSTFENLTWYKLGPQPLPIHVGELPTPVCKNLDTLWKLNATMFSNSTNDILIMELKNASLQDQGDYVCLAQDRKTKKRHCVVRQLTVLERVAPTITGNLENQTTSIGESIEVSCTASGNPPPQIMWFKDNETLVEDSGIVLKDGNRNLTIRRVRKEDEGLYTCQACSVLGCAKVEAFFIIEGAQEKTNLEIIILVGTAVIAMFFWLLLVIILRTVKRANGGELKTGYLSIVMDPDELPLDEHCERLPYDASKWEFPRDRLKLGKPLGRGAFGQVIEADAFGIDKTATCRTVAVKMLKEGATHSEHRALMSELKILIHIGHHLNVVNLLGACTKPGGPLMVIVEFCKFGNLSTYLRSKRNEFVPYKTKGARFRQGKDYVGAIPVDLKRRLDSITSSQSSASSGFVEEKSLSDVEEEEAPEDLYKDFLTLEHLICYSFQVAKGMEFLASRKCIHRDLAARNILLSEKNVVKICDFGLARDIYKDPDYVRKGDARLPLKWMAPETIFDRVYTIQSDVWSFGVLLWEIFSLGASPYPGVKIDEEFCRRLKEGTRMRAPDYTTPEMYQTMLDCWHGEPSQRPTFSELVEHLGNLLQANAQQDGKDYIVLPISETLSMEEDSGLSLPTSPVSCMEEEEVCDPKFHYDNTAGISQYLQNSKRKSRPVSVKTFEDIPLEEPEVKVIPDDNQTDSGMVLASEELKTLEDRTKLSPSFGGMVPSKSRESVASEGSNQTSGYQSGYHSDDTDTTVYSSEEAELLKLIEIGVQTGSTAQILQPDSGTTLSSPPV

The subject of one data set is MCF7 (human breast adenocarcinoma) cells. The data set can be described thus: MTT cytotoxicity assay, MCF7. The format is cell-based. As to conditions: Homo sapiens, MCF7, mean ± SD of triplicate. How it is done:
(§1) The cytotoxicity of the synthesised quinazolin-4(3H)-ones was evaluated by MTT assay, as previously described. Two cancer cell lines, MCF7 (human breast adenocarcinoma) and A2780 (human ovary adenocarcinoma), were used in this study, which were obtained from the ATCC (Rockville, MD, USA). […] Additionally, compounds were prepared at the same medium to obtain serial dilutions (50, 25, […] and 0.1 µM). […] The media were aspirated, and the formazan crystals were solubilised by adding 150 µL DMSO. Absorbance was read on a multi-plate reader (BioRad) at […]. […] The data were obtained from triplicates and analysed using statistical software.
In general terms: Tetrazolium dyes change colour on reduction, which living cells bring about.
Usually IC50 stands for the concentration at which inhibition is half-maximal. Consider `CCOC(=O)CSc1nc2ccc(F)cc2c(=O)n1Cc1ccccc1` [2g, Ethyl 2-((3-benzyl-6-fluoro-4-oxo-3,4-dihydroquinazolin-2-yl)thio)acetate], for which inhibition was half-maximal at 1220 ± 170 nM (IC50).

The next data set deals with T1, CDK2/CyclinA2 (Homo sapiens, UniProt P24941).
T1 construct: purchased #79599
The data set is described as follows: CDK2 Assay Kit, Kinase-Glo MAX luminescence. In kind it is biochemical. As to conditions: mean ± SD of triplicate. (In general: Kinase-Glo reads ATP consumption through a luciferase reaction.)
For the compound `CCOC(=O)CSc1nc2ccc(F)cc2c(=O)n1Cc1ccccc1` [2g, Ethyl 2-((3-benzyl-6-fluoro-4-oxo-3,4-dihydroquinazolin-2-yl)thio)acetate], the IC50 was 444 ± 11 nM.

A further data set concerns the target T2, VEGFR2 (Homo sapiens, UniProt P35968).
T2 construct: purchased #40325
The data set can be described thus: VEGFR2 kinase assay kit, Kinase-Glo MAX luminescence. The format is biochemical. To be noted: 0.01 µM; one experimental data; read-out: % Inhibition VEGFR-2. How it is done: (§2) The HER2/EGFR/VEGFR2 assay kit is designed to measure HER2/EGFR/VEGFR-2 inhibitory activity for screening and profiling applications, using Kinase-Glo® MAX as a detection reagent. The HER2/EGFR/VEGFR2 assay kit comes in a convenient 96-well format, with enough purified recombinant HER2/EGFR/VEGFR2 enzyme, HER2/EGFR/VEGFR2 substrate, ATP and kinase buffer 1 for 100 enzyme reactions. […] […] The quinazolin-4(3H)-ones were diluted in 10% DMSO and 5 μl of the dilution was added to a 50 μl reaction so that the final concentration of DMSO was 1% in all of the reactions. All of the enzymatic reactions were conducted at 30 °C for 40 min. The 50 μl reaction mixture contained 40 mM Tris, pH 7.4, 10 mM MgCl2, 0.1 mg/mL BSA, 1 mM DTT, 10 mM ATP, kinase substrate and the enzyme HER2 / EGFR / VEGFR2. After the enzymatic reaction, 50 μl of Kinase-Glo® MAX luminescence kinase assay solution was added to each reaction and the plates were incubated for 5 min at room temperature. Luminescence signal was measured using a Bio Tek Synergy 2 microplate reader (For detail enzyme assay protocol and the results, please see supplementary data).
Usually inhibition stands for the percentage by which the read-out fell short of the control. With `CCOC(=O)CSc1nc2ccc(F)cc2c(=O)n1Cc1ccccc1` [2g, Ethyl 2-((3-benzyl-6-fluoro-4-oxo-3,4-dihydroquinazolin-2-yl)thio)acetate], the inhibition at 0.01 µM is 2.43%.

Still in this data set, the particulars now being: 0.1 µM; one experimental data; read-out: % Inhibition VEGFR-2.
`CCOC(=O)CSc1nc2ccc(F)cc2c(=O)n1Cc1ccccc1` [2g, Ethyl 2-((3-benzyl-6-fluoro-4-oxo-3,4-dihydroquinazolin-2-yl)thio)acetate]: the inhibition at 0.1 µM stood at 18.8%.

Staying with this data set, now noted: 1 µM; one experimental data; read-out: % Inhibition VEGFR-2.
Turning to `CCOC(=O)CSc1nc2ccc(F)cc2c(=O)n1Cc1ccccc1` [2g, Ethyl 2-((3-benzyl-6-fluoro-4-oxo-3,4-dihydroquinazolin-2-yl)thio)acetate], the inhibition at 1 µM stood at 44.1%.

The same data set, now with this note: 10 µM; one experimental data; read-out: % Inhibition VEGFR-2.
With `CCOC(=O)CSc1nc2ccc(F)cc2c(=O)n1Cc1ccccc1` [2g, Ethyl 2-((3-benzyl-6-fluoro-4-oxo-3,4-dihydroquinazolin-2-yl)thio)acetate], the inhibition at 10 µM was found to be 29.2%.

Staying with this data set, now noted: mean ± SD of triplicate.
As for `CCOC(=O)CSc1nc2ccc(F)cc2c(=O)n1Cc1ccccc1` [2g, Ethyl 2-((3-benzyl-6-fluoro-4-oxo-3,4-dihydroquinazolin-2-yl)thio)acetate], the IC50 was found to be 702 ± 13 nM.

The target of another data set is T3, HER2 (Homo sapiens, UniProt P04626).
T3 construct: purchased #40721
T3 sequence (P04626 23-1255): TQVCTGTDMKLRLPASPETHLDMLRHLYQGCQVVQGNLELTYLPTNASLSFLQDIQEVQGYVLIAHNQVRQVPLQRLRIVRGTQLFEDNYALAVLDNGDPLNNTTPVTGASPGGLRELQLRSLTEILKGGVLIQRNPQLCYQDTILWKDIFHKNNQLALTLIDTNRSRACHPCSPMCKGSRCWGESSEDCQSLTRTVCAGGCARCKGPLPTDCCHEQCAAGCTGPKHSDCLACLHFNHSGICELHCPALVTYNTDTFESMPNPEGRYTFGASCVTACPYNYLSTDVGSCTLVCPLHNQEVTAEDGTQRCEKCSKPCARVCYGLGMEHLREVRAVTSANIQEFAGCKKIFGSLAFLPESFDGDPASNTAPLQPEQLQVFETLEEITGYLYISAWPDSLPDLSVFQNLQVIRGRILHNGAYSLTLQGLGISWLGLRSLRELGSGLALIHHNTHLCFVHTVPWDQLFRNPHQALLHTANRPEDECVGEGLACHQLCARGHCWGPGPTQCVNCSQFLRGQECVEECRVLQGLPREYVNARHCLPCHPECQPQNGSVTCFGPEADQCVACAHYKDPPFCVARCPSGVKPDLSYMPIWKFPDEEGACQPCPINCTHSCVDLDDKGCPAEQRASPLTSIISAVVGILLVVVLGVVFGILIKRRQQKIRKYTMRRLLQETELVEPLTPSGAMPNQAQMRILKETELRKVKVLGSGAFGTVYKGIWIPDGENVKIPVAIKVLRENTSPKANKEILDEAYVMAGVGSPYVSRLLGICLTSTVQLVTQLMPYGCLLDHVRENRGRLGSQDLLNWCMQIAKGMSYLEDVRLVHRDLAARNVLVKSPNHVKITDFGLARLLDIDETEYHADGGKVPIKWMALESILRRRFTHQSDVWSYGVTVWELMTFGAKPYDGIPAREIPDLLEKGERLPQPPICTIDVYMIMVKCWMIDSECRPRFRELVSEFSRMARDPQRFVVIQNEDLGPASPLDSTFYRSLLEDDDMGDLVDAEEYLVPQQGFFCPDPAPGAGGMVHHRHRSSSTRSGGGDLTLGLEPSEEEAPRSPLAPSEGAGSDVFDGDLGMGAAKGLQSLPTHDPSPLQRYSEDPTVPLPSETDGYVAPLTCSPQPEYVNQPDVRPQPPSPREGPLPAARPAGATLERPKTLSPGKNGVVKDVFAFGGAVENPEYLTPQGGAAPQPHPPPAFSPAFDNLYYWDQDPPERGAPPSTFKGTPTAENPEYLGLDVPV
The data set is described as follows: HER2 kinase assay kit, Kinase-Glo MAX luminescence. As to conditions: 0.01 µM; one experimental data. The format is biochemical. The method, then: as §2
As to `CCOC(=O)CSc1nc2ccc(F)cc2c(=O)n1Cc1ccccc1` [2g, Ethyl 2-((3-benzyl-6-fluoro-4-oxo-3,4-dihydroquinazolin-2-yl)thio)acetate], the inhibition at 0.01 µM is 17.3%.

The data set is the same for the next values; noted with them: 0.1 µM; one experimental data.
In the case of `CCOC(=O)CSc1nc2ccc(F)cc2c(=O)n1Cc1ccccc1` [2g, Ethyl 2-((3-benzyl-6-fluoro-4-oxo-3,4-dihydroquinazolin-2-yl)thio)acetate], the inhibition at 0.1 µM worked out at 44.2%.

Still in this data set, the particulars now being: 1 µM; one experimental data.
For the compound `CCOC(=O)CSc1nc2ccc(F)cc2c(=O)n1Cc1ccccc1` [2g, Ethyl 2-((3-benzyl-6-fluoro-4-oxo-3,4-dihydroquinazolin-2-yl)thio)acetate], the inhibition at 1 µM is 83.5%.

Staying with this data set, now noted: 10 µM; one experimental data.
Regarding `CCOC(=O)CSc1nc2ccc(F)cc2c(=O)n1Cc1ccccc1` [2g, Ethyl 2-((3-benzyl-6-fluoro-4-oxo-3,4-dihydroquinazolin-2-yl)thio)acetate], the inhibition at 10 µM was 94.4%.

Staying with this data set, now noted: mean ± SD of triplicate.
`CCOC(=O)CSc1nc2ccc(F)cc2c(=O)n1Cc1ccccc1` [2g, Ethyl 2-((3-benzyl-6-fluoro-4-oxo-3,4-dihydroquinazolin-2-yl)thio)acetate]: the IC50 is 884 ± 16 nM.

The target in the next data set is T1, CDK2/CyclinA2. The data set can be described thus: CDK2 Assay Kit, Kinase-Glo MAX luminescence. In kind it is biochemical. As to conditions: 0.01 µM; one experimental data. The method, then: The CDK2 Assay Kit is designed to measure CDK2/CyclinA2 activity for screening and profiling applications, using Kinase-Glo® MAX as a detection reagent. The CDK2 Assay Kit comes in a convenient 96-well format, with enough purified recombinant CDK2/CyclinA2 enzyme, CDK substrate peptide, ATP and kinase assay buffer for 100 enzyme reactions. […] […] The compounds were diluted in 10% DMSO and 5 μl of the dilution was added to a 50 μl reaction so that the final concentration of DMSO was 1% in all of the reactions. All of the enzymatic reactions were conducted at 30 °C for 40 min. The 50 μl reaction mixture contained 40 mM Tris, pH 7.4, 10 mM MgCl2, 0.1 mg/mL BSA, 1 mM DTT, 10 mM ATP, Kinase substrate and the enzyme (CDK2/CyclinA2). After the enzymatic reaction, 50 μl of Kinase-Glo® MAX Luminescence kinase assay solution was added to each reaction and the plates were incubated for 5 min at room temperature. Luminescence signal was measured using a Bio Tek Synergy 2 microplate reader.
Figure S1. Calculation of the IC20 Values of Protein Kinase Enzyme CDK2 for 2f
* All the kinase IC20 (µM) were calculated according to the above equations.
(1 picture or pasted object on this page, not shown here)
`CCOC(=O)CSc1nc2ccc(F)cc2c(=O)n1Cc1ccccc1` [2g, Ethyl 2-((3-benzyl-6-fluoro-4-oxo-3,4-dihydroquinazolin-2-yl)thio)acetate]: the inhibition at 0.01 µM turned out to be 8.38%.

Staying with this data set, now noted: 0.1 µM; one experimental data.
Turning to `CCOC(=O)CSc1nc2ccc(F)cc2c(=O)n1Cc1ccccc1` [2g, Ethyl 2-((3-benzyl-6-fluoro-4-oxo-3,4-dihydroquinazolin-2-yl)thio)acetate], the inhibition at 0.1 µM is 20.7%.

The same data set, now with this note: 1 µM; one experimental data.
For `CCOC(=O)CSc1nc2ccc(F)cc2c(=O)n1Cc1ccccc1` [2g, Ethyl 2-((3-benzyl-6-fluoro-4-oxo-3,4-dihydroquinazolin-2-yl)thio)acetate], the inhibition at 1 µM was found to be 78.2%.

Staying with this data set, now noted: 10 µM; one experimental data.
For `CCOC(=O)CSc1nc2ccc(F)cc2c(=O)n1Cc1ccccc1` [2g, Ethyl 2-((3-benzyl-6-fluoro-4-oxo-3,4-dihydroquinazolin-2-yl)thio)acetate], the inhibition at 10 µM amounted to 91.4%.

Test system in the next data set: not given
Assay: not given
Details: not given
The term melting point denotes the temperature, or range, at which the solid turns liquid. `CCOC(=O)CSc1nc2ccc(F)cc2c(=O)n1Cc1ccccc1` [2g, Ethyl 2-((3-benzyl-6-fluoro-4-oxo-3,4-dihydroquinazolin-2-yl)thio)acetate]: the melting point fell in the range of 110 to 111 °C.

The subject of a further data set is A2780 (human ovary adenocarcinoma) cells. The data set can be described thus: MTT cytotoxicity assay, A2780. In kind it is cell-based. As to conditions: Homo sapiens, A2780, mean ± SD of triplicate. How it is done: as §1
For `CCOC(=O)CSc1nc2ccc(F)cc2c(=O)n1Cc1ccccc1` [2g, Ethyl 2-((3-benzyl-6-fluoro-4-oxo-3,4-dihydroquinazolin-2-yl)thio)acetate], the IC50 was determined as 2400 ± 200 nM.

For another data set, the target named is T4, EGFR (Homo sapiens, UniProt P00533).
T4 construct: purchased #40321
T4 sequence (P00533 25-1210): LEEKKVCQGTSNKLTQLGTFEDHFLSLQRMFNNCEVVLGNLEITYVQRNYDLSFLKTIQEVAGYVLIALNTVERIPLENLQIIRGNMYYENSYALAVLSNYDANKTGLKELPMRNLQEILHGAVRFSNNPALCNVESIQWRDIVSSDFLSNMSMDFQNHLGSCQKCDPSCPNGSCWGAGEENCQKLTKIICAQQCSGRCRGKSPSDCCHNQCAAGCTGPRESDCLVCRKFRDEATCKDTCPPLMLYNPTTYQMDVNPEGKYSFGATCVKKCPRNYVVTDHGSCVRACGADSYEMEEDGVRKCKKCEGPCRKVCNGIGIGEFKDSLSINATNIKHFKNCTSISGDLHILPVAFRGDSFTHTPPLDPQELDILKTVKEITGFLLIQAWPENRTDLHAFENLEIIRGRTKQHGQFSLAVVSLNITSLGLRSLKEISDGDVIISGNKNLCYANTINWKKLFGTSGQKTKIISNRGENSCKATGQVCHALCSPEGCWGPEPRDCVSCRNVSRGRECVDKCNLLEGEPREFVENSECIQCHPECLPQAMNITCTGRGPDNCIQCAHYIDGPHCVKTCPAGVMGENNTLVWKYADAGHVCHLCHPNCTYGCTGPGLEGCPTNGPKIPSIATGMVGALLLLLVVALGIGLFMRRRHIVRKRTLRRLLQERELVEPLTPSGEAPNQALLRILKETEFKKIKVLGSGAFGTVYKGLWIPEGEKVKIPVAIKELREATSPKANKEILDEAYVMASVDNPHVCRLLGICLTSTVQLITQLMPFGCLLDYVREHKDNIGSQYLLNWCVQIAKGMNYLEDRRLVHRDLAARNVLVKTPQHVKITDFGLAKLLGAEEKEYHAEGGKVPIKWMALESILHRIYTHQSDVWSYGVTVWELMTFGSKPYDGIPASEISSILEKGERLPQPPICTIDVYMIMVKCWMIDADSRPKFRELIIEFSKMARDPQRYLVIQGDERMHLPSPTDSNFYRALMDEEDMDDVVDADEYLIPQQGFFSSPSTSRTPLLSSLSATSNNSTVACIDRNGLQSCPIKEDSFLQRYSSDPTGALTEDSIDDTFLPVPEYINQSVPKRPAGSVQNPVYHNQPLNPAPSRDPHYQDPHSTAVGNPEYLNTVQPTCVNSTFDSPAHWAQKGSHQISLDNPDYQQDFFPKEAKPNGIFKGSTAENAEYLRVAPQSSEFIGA
The data set can be described thus: EGFR kinase assay kit, Kinase-Glo MAX luminescence. As to conditions: 0.01 µM; one experimental data. The format is biochemical. How it is done: as §2
With `CCOC(=O)CSc1nc2ccc(F)cc2c(=O)n1Cc1ccccc1` [2g, Ethyl 2-((3-benzyl-6-fluoro-4-oxo-3,4-dihydroquinazolin-2-yl)thio)acetate], the inhibition at 0.01 µM amounted to 22.9%.

Still in this data set, the particulars now being: 0.1 µM; one experimental data.
For `CCOC(=O)CSc1nc2ccc(F)cc2c(=O)n1Cc1ccccc1` [2g, Ethyl 2-((3-benzyl-6-fluoro-4-oxo-3,4-dihydroquinazolin-2-yl)thio)acetate], the inhibition at 0.1 µM came out at 48.9%.

Still in this data set, the particulars now being: 1 µM; one experimental data.
As to `CCOC(=O)CSc1nc2ccc(F)cc2c(=O)n1Cc1ccccc1` [2g, Ethyl 2-((3-benzyl-6-fluoro-4-oxo-3,4-dihydroquinazolin-2-yl)thio)acetate], the inhibition at 1 µM was found to be 80.1%.

The same data set, now with this note: 10 µM; one experimental data.
Regarding `CCOC(=O)CSc1nc2ccc(F)cc2c(=O)n1Cc1ccccc1` [2g, Ethyl 2-((3-benzyl-6-fluoro-4-oxo-3,4-dihydroquinazolin-2-yl)thio)acetate], the inhibition at 10 µM came out at 91.2%.

The same data set, now with this note: mean ± SD of triplicate.
For the compound `CCOC(=O)CSc1nc2ccc(F)cc2c(=O)n1Cc1ccccc1` [2g, Ethyl 2-((3-benzyl-6-fluoro-4-oxo-3,4-dihydroquinazolin-2-yl)thio)acetate], the IC50 was found to be 232 ± 30 nM.
